Read-outs that look alike come from different tables or passages of the source.
Assays:
Assay in all cases: biochemical
Conditions in all cases: fluorogenic MCA-peptide substrate, pH 7.5, room temperature
Recombinant human MMP-1 = target: T1, Recombinant human MMP-1 (Homo sapiens, UniProt P03956)
T1 construct: made in house; host or cells: transfected HT-1080 cells
T1 sequence (P03956 100-469): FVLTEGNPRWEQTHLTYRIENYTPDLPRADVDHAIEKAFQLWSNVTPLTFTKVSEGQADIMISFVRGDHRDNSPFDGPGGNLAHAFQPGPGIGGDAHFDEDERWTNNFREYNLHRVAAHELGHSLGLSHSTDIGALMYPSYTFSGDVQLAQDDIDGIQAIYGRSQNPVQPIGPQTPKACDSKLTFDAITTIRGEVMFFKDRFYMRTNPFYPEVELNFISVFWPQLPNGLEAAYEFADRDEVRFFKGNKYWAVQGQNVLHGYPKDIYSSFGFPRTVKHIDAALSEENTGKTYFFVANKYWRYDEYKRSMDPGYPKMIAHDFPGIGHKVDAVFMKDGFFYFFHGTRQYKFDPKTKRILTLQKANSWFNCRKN
Protocol: Recombinant human MMP-1, MMP-2, MMP-9, MMP-13, and were used in this assay. These enzymes were prepared in the Assignee's es following usual laboratory procedures. Specifics for preparing and e enzymes can be found in the scientific literature describing these See, e.g., Enzyme Nomenclature (Academic Press, San Diego, Calif., d the citations therein).
The MMP-1 was obtained from MMP-1 expressing transfected HT-1080 cells provided by Dr. Harold Welgus of Washington University in St. Louis, Mo. The MMP-1 was activated using 4-aminophenylmercuric acetate (APMA), and then purified over a hydroxamic acid column.
The enzyme substrate was a methoxycoumarin-containing polypeptide having the following sequence:
MCA-ProLeuGlyLeuDpaAlaArgNH2
Here, “MCA” is methoxycoumarin and “Dpa” is 3-(2,4-dinitrophenyl)-L-2,3-diaminopropionyl alanine.
These solutions were then compared to a control (which contained equal amount of DMSO/buffer solution, but no hydroxamate compound) using Microfluor™ White Plates (Dynatech, Chantilly, Va.). Specifically, The MMPs were activated with APMA or trypsin. […] The control likewise was incubated at room temperature in separate plates with the MMP and 4 uM of the MMP substrate. […] Inhibition was measured as a reduction in fluorescent intensity as a function of inhibitor concentration using a Perkin Elmer (Norwalk, Conn.) L550 plate reader. The IC50's were then calculated from these measurements.

Recombinant human MMP-2 = target: T2, Recombinant human MMP-2 (Homo sapiens, UniProt P08253)
T2 construct: made in house
T2 sequence (P08253 110-660): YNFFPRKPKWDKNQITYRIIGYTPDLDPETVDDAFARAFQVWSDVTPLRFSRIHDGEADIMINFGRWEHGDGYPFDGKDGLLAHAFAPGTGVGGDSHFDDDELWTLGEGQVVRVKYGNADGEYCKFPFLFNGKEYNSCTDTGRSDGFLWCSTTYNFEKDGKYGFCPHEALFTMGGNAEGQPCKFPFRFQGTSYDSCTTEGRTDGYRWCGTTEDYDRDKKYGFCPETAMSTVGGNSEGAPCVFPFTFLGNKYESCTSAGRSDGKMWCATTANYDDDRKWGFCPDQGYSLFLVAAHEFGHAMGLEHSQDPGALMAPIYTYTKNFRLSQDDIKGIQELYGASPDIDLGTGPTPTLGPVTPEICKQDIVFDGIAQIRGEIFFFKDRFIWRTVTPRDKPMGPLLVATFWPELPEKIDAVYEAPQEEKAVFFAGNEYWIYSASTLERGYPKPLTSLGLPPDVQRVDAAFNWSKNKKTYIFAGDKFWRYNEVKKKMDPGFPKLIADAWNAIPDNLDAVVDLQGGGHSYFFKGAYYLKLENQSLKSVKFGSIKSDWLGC
In short: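 Activated (APMA or trypsin) recombinant human MMP-2, from transfected expressing cells, incubated at room temperature with 4 uM fluorogenic substrate MCA-Pro-Leu-Gly-Leu-Dpa-Ala-Arg-NH2 and hydroxamate inhibitor.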

Recombinant human MMP-13 = target: T3, Recombinant human MMP-13 (Homo sapiens, UniProt P45452)
T3 construct: made in house; host or cells: baculovirus / insect cells
In short: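 APMA-activated MMP (proenzyme purified on heparin agarose and chelating zinc columns) incubated at room temperature with 4 uM fluorogenic MCA-ProLeuGlyLeuDpaAlaArgNH2 substrate. Inhibition read as reduced fluorescence versus inhibitor concentration relative to a DMSO control, giving IC50.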

| Compound | IC50 (Recombinant human MMP-1) | IC50 (Recombinant human MMP-2; read-out: MMP-2 IC50) | IC50 (Recombinant human MMP-13; read-out: MMP-13 IC50) | IC50 (Recombinant human MMP-2; MMP-2 IC50(nM)) | IC50 (Recombinant human MMP-13; MMP-13 IC50(nM)) |
| --- | --- | --- | --- | --- | --- |
| CCCc1ccc(C(=O)C2CCN(c3ccc(S(=O)(=O)C4(C(=O)NO)CCN(CC)CC4)cc3)CC2)cc1 [Example 170] | > 10000 nM | 134 nM | 1.3 nM |  |  |
| O=C(c1ccc(CC2CCCC2)cc1)C1CCN(c2ccc(S(=O)(=O)C3(C(=O)NO)CCN(C4CC4)CC3)cc2)CC1 [Example 197] | > 10000 nM | 1720 nM | 1.4 nM |  |  |
| COCCN1CCC(C(=O)NO)(S(=O)(=O)c2ccc(N3CCC(C(=O)c4cccc(Cl)c4)CC3)cc2)CC1 [Example 186] | > 10000 nM | 94.4 nM | 3.5 nM |  |  |
| Cc1cc(C(=O)C2CCN(c3ccc(S(=O)(=O)C4(C(=O)NO)CCN(S(C)(=O)=O)CC4)cc3)CC2)ccc1Cl [Example 219] | > 10000 nM | 258 nM | 4.9 nM |  |  |
| COCCN1CCC(C(=O)NO)(S(=O)(=O)c2ccc(N3CCC(C(=O)c4ccc(CC(C)C)cc4)CC3)cc2)CC1 [Example 218] | > 10000 nM | 75.7 nM | 0.2 nM |  |  |
| C=CCN1CCN(C(=O)C2CCN(c3ccc(S(=O)(=O)C4(C(=O)NO)CCOCC4)cc3)CC2)CC1 [Example 34] | > 10000 nM | 3700 nM | 19.3 nM |  |  |
| CC(C)COc1ccc(C(=O)C2CCN(c3ccc(S(=O)(=O)C4(C(=O)NO)CCN(C5CC5)CC4)cc3)CC2)cc1 [Example 216] | > 10000 nM | 46.4 nM | 1.5 nM |  |  |
| O=C(NO)C1(S(=O)(=O)c2ccc(N3CCC(c4ccc(Cl)cc4)CC3)cc2)CCN(C2CC2)CC1 [Example 270] | > 10000 nM | 1.9 nM | 1.1 nM |  |  |
| O=C(C1CCN(c2ccc(S(=O)(=O)C3(C(=O)NO)CCOCC3)cc2)CC1)N1CCN(c2ccccc2Cl)CC1 [Example 4] | > 10000 nM | 2900 nM | 15.6 nM |  |  |
| O=C(c1ccc(Cl)cc1)C1CCN(c2ccc(S(=O)(=O)C3(C(=O)NO)CCN(CC4CC4)CC3)cc2)CC1 [Example 123] | > 10000 nM | 46.3 nM | 0.1 nM |  |  |
| O=C(c1ccc(Br)cc1)C1CCN(c2ccc(S(=O)(=O)C3(C(=O)NO)CCN(C4CC4)CC3)cc2)CC1 [Example 190] | > 10000 nM | 23.1 nM | 0.2 nM |  |  |
| COCCN1CCC(C(=O)NO)(S(=O)(=O)c2ccc(N3CCC(C(=O)c4ccc(OC5CCCC5)cc4)CC3)cc2)CC1 [Example 227] | > 10000 nM | 132 nM | 1.4 nM |  |  |
| CC(=O)N1CCN(C(=O)C2CCN(c3ccc(S(=O)(=O)C4(C(=O)NO)CCOCC4)cc3)CC2)CC1 [Example 8] | > 10000 nM |  | 50 nM | 2500 nM |  |
| CC(C)Cc1ccc(C(=O)C2CCN(c3ccc(S(=O)(=O)C4(C(=O)NO)CCN(C5CC5)CC4)cc3)CC2)cc1 [Example 189] | > 10000 nM | 258 nM | < 0.1 nM |  |  |
| C#CCN1CCC(C(=O)NO)(S(=O)(=O)c2ccc(N3CCC(C(=O)c4ccc(N(C)CC)cc4)CC3)cc2)CC1 [Example 174] | > 10000 nM | 1070 nM | 1.1 nM |  |  |
| CCN1CCC(C(=O)NO)(S(=O)(=O)c2ccc(N3CCC(C(=O)c4ccc(CC5CC5)cc4)CC3)cc2)CC1 [Example 254] | > 10000 nM | 132 nM | 1.3 nM |  |  |
| O=C(C1CCN(c2ccc(S(=O)(=O)C3(C(=O)NO)CCOCC3)cc2)CC1)N1CCN(c2ncccn2)CC1 [Example 23] | > 10000 nM |  |  | 1600 nM | 6.4 nM |
| C#CCN1CCC(C(=O)NO)(S(=O)(=O)c2ccc(N3CCC(C(=O)c4cccc(OC)c4)CC3)cc2)CC1 [Example 155] | > 10000 nM | 43.8 nM | 1.4 nM |  |  |

| Compound | IC50 (Recombinant human MMP-1) | IC50 (Recombinant human MMP-2; read-out: MMP-2 IC50) | IC50 (Recombinant human MMP-13; read-out: MMP-13 IC50) | IC50 (Recombinant human MMP-2; MMP-2 IC50(nM)) | IC50 (Recombinant human MMP-13; MMP-13 IC50(nM)) |
| --- | --- | --- | --- | --- | --- |
| CC(C)N1CCN(C(=O)C2CCN(c3ccc(S(=O)(=O)C4(C(=O)NO)CCOCC4)cc3)CC2)CC1 [Example 15] | > 10000 nM | 5500 nM | 28 nM |  |  |
| O=C(CN1CCN(C(=O)C2CCN(c3ccc(S(=O)(=O)C4(C(=O)NO)CCOCC4)cc3)CC2)CC1)N1CCCC1 [Example 16] | > 10000 nM | 4800 nM | 42.5 nM |  |  |
| O=C(C1CCN(c2ccc(S(=O)(=O)C3(C(=O)NO)CCOCC3)cc2)CC1)N1CCN(CCO)CC1 [Example 10] | > 10000 nM | 6000 nM | 40 nM |  |  |
| C#CCN1CCC(C(=O)NO)(S(=O)(=O)c2ccc(N3CCC(C(=O)c4ccc(Cl)cc4)CC3)cc2)CC1 [Example 153] | > 10000 nM | 30.6 nM | 0.2 nM |  |  |
| Cc1cc(C(=O)C2CCN(c3ccc(S(=O)(=O)C4(C(=O)NO)CCN(C5CC5)CC4)cc3)CC2)ccc1Cl [Example 214] | > 10000 nM | 160 nM | 1.7 nM |  |  |
| COCCN1CCC(C(=O)NO)(S(=O)(=O)c2ccc(N3CCC(C(=O)c4ccc(CCCC(C)C)cc4)CC3)cc2)CC1 [Example 226] | > 10000 nM | 1020 nM | < 0.1 nM |  |  |
| COCCN1CCC(C(=O)NO)(S(=O)(=O)c2ccc(N3CCC(C(=O)c4ccc(CC5CCC5)cc4)CC3)cc2)CC1 [Example 201] | > 10000 nM | 6320 nM | 0.2 nM |  |  |
| CCN1CCC(C(=O)NO)(S(=O)(=O)c2ccc(N3CCC(C(=O)c4ccc(CCC5CCCC5)cc4)CC3)cc2)CC1 [Example 237] | > 10000 nM | 1910 nM | 2.1 nM |  |  |
| CCc1ccc(C(=O)C2CCN(c3ccc(S(=O)(=O)C4(C(=O)NO)CCN(CC)CC4)cc3)CC2)cc1 [Example 222] | > 10000 nM | 197 nM | 1 nM |  |  |
| COc1ccc(C(=O)C2CCN(c3ccc(S(=O)(=O)C4(C(=O)NO)CCOCC4)cc3)CC2)cc1C [Example 305] | > 10000 nM | 3300 nM | 6 nM |  |  |
| CCCCc1ccc(C(=O)C2CCN(c3ccc(S(=O)(=O)C4(C(=O)NO)CCN(CCOC)CC4)cc3)CC2)s1 [Example 121] | > 10000 nM | 58.8 nM | 0.1 nM |  |  |
| COc1ccc(C2CCN(c3ccc(S(=O)(=O)C4(C(=O)NO)CCN(C5CC5)CC4)cc3)CC2)cc1 [Example 260] | > 10000 nM | 1.2 nM | 0.4 nM |  |  |
| O=C(C1CCN(c2ccc(S(=O)(=O)C3(C(=O)NO)CCOCC3)cc2)CC1)N1CCN(c2ccc([N+](=O)[O-])cc2)CC1 [Example 25] | > 10000 nM | 445 nM | 4 nM |  |  |
| C#CCN1CCC(C(=O)NO)(S(=O)(=O)c2ccc(N3CCC(C(=O)c4ccc5ccccc5c4)CC3)cc2)CC1 [Example 175] | > 10000 nM | 137 nM | 0.7 nM |  |  |
| Cc1ccc(Cl)cc1N1CCN(C(=O)C2CCN(c3ccc(S(=O)(=O)C4(C(=O)NO)CCOCC4)cc3)CC2)CC1 [Example 6] | > 10000 nM | > 10000 nM | 18.1 nM |  |  |
| CCN1CCC(C(=O)NO)(S(=O)(=O)c2ccc(N3CCC(C(=O)c4ccc(OC)cc4)CC3)cc2)CC1 [Example 194] | > 10000 nM | 1230 nM | 9.1 nM |  |  |
| COCCN1CCC(C(=O)NO)(S(=O)(=O)c2ccc(N3CCC(c4ccc(OC)cc4)CC3)cc2)CC1 [Example 267] | > 10000 nM | 1.7 nM | 0.4 nM |  |  |

— patent US20040209914A1, “Aromatic sulfone hydroxamic acids and their use as protease inhibitors” (priority 2000, published 2004)
